This note sets out measurements from ChEMBL document CHEMBL3046877, “Synthesis and bioevaluation of novel arylnaphthalene lignans as anticancer agents” (Med Chem Res, 2013).

Calls of active or inactive are those of the source. The calls are words filed in the database; no cut-off is given here. Some results are limits rather than exact numbers.

The subject of one assay is HCT-116. Put plainly: Anticancer activity against Homo sapiens (human) HCT116 cells assessed as decrease in cell growth after 3 days by MTT assay. The format is functional, cell-based. The note with it: HCT-116, 72 h. On the technique in general: Tetrazolium dyes change colour on reduction, which living cells bring about.
A further assay relates to SW480. Put plainly: Anticancer activity against Homo sapiens (human) SW480 cells assessed as decrease in cell growth after 3 days by MTT assay. The format is functional, cell-based. The conditions noted are these: SW480, 72 h.
Assay [1] relates to KB. Briefly: Anticancer activity against Homo sapiens (human) KB cells assessed as decrease in cell growth after 3 days by MTT assay. The format is functional, cell-based. The note with it: 72 h.
The test system of another assay is A549. Briefly: Anticancer activity against Homo sapiens (human) A549 cells assessed as decrease in cell growth after 3 days by MTT assay. The format is functional, cell-based. The note with it: A549, 72 h.
In another assay the test system is HEK293. Put plainly: Cytotoxicity against Homo sapiens (human) HEK293 cells assessed as decrease in cell growth after 3 days by MTT assay. The format is cell-based. The conditions noted are these: HEK293, 72 h.
For assay [2], the system named is KB. Put plainly: Induction of apoptosis in Homo sapiens (human) KB cells assessed as plasma membrane blebbing at 5 to 10 uM after 72 hr by AO/EB double staining based fluorescence microscopic analysis. The format is functional, cell-based.
Assay [3] has as its system KB. Put plainly: Induction of apoptosis in Homo sapiens (human) KB cells assessed as increase in Bax expression at 5 to 15 uM after 72 hr by western blot analysis. The format is functional, cell-based. In general terms: A western blot detects proteins with antibodies after separation by electrophoresis.
The subject of assay [4] is KB. Put plainly: Induction of apoptosis in Homo sapiens (human) KB cells assessed as decrease in Bcl-2 expression at 5 to 15 uM after 72 hr by western blot analysis. The format is functional, cell-based.

Turning to `COc1cc2c(O)c3c(c(-c4ccccc4)c2cc1OC)C(=O)OC3`, the IC50 in the assay on HCT-116, with SW480, with KB [1], in the assay on A549 and with HEK293 was greater than 100 µM in each case.
As to `COc1cc2c(O)c3c(c(-c4ccc(C)cc4)c2cc1OC)C(=O)OC3`, the concentration for half-maximal inhibition (IC50) (commonly the concentration that gives 50% inhibition) in the assay with HCT-116 was greater than 100 µM; in the assay with SW480 it was greater than 100 µM; with KB [1] it was 15.1 µM; in the assay with A549, greater than 100 µM; with HEK293 it was greater than 100 µM.
Turning to `COc1cc2c(O)c3c(c(-c4ccccc4OC)c2cc1OC)C(=O)OC3`, the half-inhibitory concentration (IC50) is greater than 100 µM in the assay on HCT-116; 22.8 µM in the assay on SW480; greater than 100 µM in the assay with KB [1]; greater than 100 µM in the assay with A549; greater than 100 µM in the assay on HEK293.
Regarding `COc1cc2c(O)c3c(c(-c4ccc5c(c4)OCO5)c2cc1OC)C(=O)OC3` [DIPHYLLIN], the values for the half-inhibitory concentration (IC50) with HCT-116 and with HEK293 were 48.5 µM and greater than 100 µM, respectively.
On to `COc1cc2c(O)c3c(c(-c4cc(OC)c(OC)c(OC)c4)c2cc1OC)C(=O)OC3`, for which the IC50 in the assay on HCT-116 is greater than 100 µM; in the assay on SW480 it was greater than 100 µM; in the assay on KB [1], 23.2 µM; with A549 it was 97.2 µM; with HEK293, greater than 100 µM.
In the case of `COc1cc(OC)cc(-c2c3c(c(O)c4cc(OC)c(OC)cc24)COC3=O)c1`, the half-maximal inhibitory concentration (IC50) in the assay with HCT-116 is 29.3 µM; in the assay on SW480 it was 5.6 µM; in the assay on KB [1] it was 5.1 µM; in the assay with A549, greater than 100 µM; in the assay with HEK293, greater than 100 µM. The outcome in the assay with KB [2] and in the assay with KB [3] was Active. For the same compound, in the assay on KB [4], the inhibition result was “Active”.
In the case of `COc1ccc(-c2c3c(c(O)c4cc(OC)c(OC)cc24)COC3=O)cc1OC`, the IC50 with HCT-116, with SW480, with KB [1], with A549 and in the assay with HEK293 was greater than 100 µM throughout.
`COc1cccc(-c2c3c(c(O)c4cc(OC)c(OC)cc24)COC3=O)c1`: the IC50 is 88.5 µM with HCT-116; greater than 100 µM in the assay on SW480; greater than 100 µM in the assay with KB [1]; greater than 100 µM in the assay with A549; greater than 100 µM in the assay on HEK293.
As to `COc1ccc(-c2c3c(c(O)c4cc(OC)c(OC)cc24)COC3=O)cc1`, the IC50 was greater than 100 µM in the assay on HCT-116; greater than 100 µM in the assay with SW480; 20.6 µM in the assay with KB [1]; greater than 100 µM with A549; greater than 100 µM with HEK293.
Consider `COc1cc([C@@H]2c3cc4c(cc3[C@@H](O[C@@H]3O[C@@H]5CO[C@@H](C)O[C@H]5[C@H](O)[C@H]3O)[C@H]3COC(=O)[C@H]23)OCO4)cc(OC)c1O` [ETOPOSIDE], for which the concentration for half-maximal inhibition (IC50) in the assay on HEK293 was greater than 100 µM.
For `COc1ccc(OC)c(-c2c3c(c(O)c4cc(OC)c(OC)cc24)COC3=O)c1`, the IC50 in the assay with HCT-116, in the assay with SW480, with KB [1], in the assay on A549 and with HEK293 was greater than 100 µM throughout.
